Reference: article PMC9597602, “Metal Complexes as Antifungals? From a Crowd-Sourced Compound Library to the First In Vivo Experiments” (JACS Au, 2022)
Values joined by “and” are separate entries in the source; they are usually repeats but may differ in a detail not shown here. Equal values may be shown once. Read-outs that look alike come from different tables or passages of the source.

Key:
[1] = test system: HEK-293 human embryonic kidney cells ATCC CRL-1573; settings: for HEK CC50: initial CO-ADD screening, 20 h
Procedure: The cells were incubated together with the compounds for 20 h at 37 °C in 5% CO2. […] Tamoxifen (Sigma T5648) was used as internal control on each plate.

[2] = test system: Candida albicans ATCC 90028 NCCLS11; experiment: Antifungal MIC assay; format: cell-based; settings: for MIC: Candida albicans, ATCC90028, comparator antifungals, read-out: MIC* Candida albicans ATCC 90028
Procedure: For the fungal assays, both fungi (yeast) strains were cultured for 3 days on Yeast Extract-Peptone Dextrose (YPD; Becton Dickinson 242720) agar at 30 °C. A yeast suspension of 1 × 10^6 to 5 × 10^6 CFU/mL (as determined by OD530) was prepared from five colonies from the agar plates, subsequently diluted with Yeast Nitrogen Base media (YNB; Becton Dickinson 233520), and added to each well of the compound containing plates (384-well plates, NBS; Corning CLS3640), giving a final cell density of 2.5 × 10^3 CFU/mL and a total volume of 50 μL. Plates were covered and incubated at 35 °C for 36 h without shaking. […] […], equivalent to ″optically clear-to-slightly hazy″ or MIC score of 0–1 as per CLSI guidelines M27 Reference Method for Broth Dilution Antifungal Susceptibility Testing of Yeasts. […] Fluconazole (Sigma F8929) was used as internal control on each plate for all strains. All compounds were tested as two technical replicates in two to four independent biological assays, n = 4–8 final data.

human red blood cells = format: cell-based; settings: initial CO-ADD screening, 1 h; 10% hemolysis
Procedure: Human whole blood (Australian Red Cross) was washed three times with 3 vol of 0.9% NaCl and resuspended in a concentration of 0.5 × 10^8 cells/mL, determined by a manual cell count in a Neubauer hemocytometer. […] After incubation, the plates were centrifuged at 1000g for 10 min to pellet cells and debris; 25 μL of the supernatant was then transferred to reading plates (384-well, polystyrene plated (PS), Corning CLS3680), with hemolysis determined by measuring the supernatant absorbance at […] (OD405) using cells without inhibitors as negative control and cells with 1% Triton X-100 (Sigma T8787) as positive control. […] Melittin (Sigma M2272) was used as internal control on each plate.

[3] = test system: Escherichia coli ATCC 25922 FDA control strain; experiment: CO-ADD antibacterial MIC assay; format: cell-based
Procedure: (§1) For the all the bacterial assays, each bacterial strain was cultured in cation-adjusted Mueller Hinton broth (CAMHB; Bacto Laboratories 212322) at 37 °C overnight. A sample of each culture was then diluted 40-fold in fresh CAMHB and incubated at 37 °C for 1.5–3 h. The resultant mid-log phase cultures were diluted with CAMHB (CFU/mL measured by OD600) and then added to each well of the compound-containing plates (384-well non-binding surface (NBS) plates; Corning CLS3640), giving a cell density of 5 × 10^5 CFU/mL and a total volume of 50 μL. Plates were covered and incubated at 37 °C for 18 h without shaking. Inhibition of bacterial growth was determined by measuring the absorbance at 600 nm (OD600) using media only as negative control and bacteria without inhibitors as positive control. MIC values were determined as the lowest concentration at which the growth was inhibited by ≥80% (equivalent to no visible growth by the eye). Colistin sulfate (Sigma C4461) and vancomycin HCl (Sigma 861987) were used as internal controls on each plate for Gram-negative and Gram-positive bacteria, respectively. All compounds were tested as two technical replicates in two independent biological assays, n = 4 final data.

[4] = test system: Pseudomonas aeruginosa ATCC 27853 QC control strain; experiment: CO-ADD antibacterial MIC assay; format: cell-based
Procedure: as §1

[5] = test system: Acinetobacter baumannii ATCC 19606 type strain; experiment: CO-ADD antibacterial MIC assay; format: cell-based
Procedure: as §1

[6] = test system: methicillin-resistant Staphylococcus aureus ATCC 43300; experiment: CO-ADD antibacterial MIC assay; format: cell-based
Procedure: as §1

[7] = test system: Cryptococcus neoformans H99 ATCC 208821 type strain; experiment: Antifungal MIC assay; format: cell-based; settings: for MIC: Cryptococcus neoformans, ATCC208821, read-out: MIC* Cryptococcus neoformans ATCC 208821
Procedure: For the fungal assays, both fungi (yeast) strains were cultured for 3 days on Yeast Extract-Peptone Dextrose (YPD; Becton Dickinson 242720) agar at 30 °C. A yeast suspension of 1 × 10^6 to 5 × 10^6 CFU/mL (as determined by OD530) was prepared from five colonies from the agar plates, subsequently diluted with Yeast Nitrogen Base media (YNB; Becton Dickinson 233520), and added to each well of the compound containing plates (384-well plates, NBS; Corning CLS3640), giving a final cell density of 2.5 × 10^3 CFU/mL and a total volume of 50 μL. Plates were covered and incubated at 35 °C for 36 h without shaking. […] MIC values were recorded as the lowest concentration at which the growth was inhibited by ≥80%, equivalent to ″optically clear-to-slightly hazy″ or MIC score of 0–1 as per CLSI guidelines M27 Reference Method for Broth Dilution Antifungal Susceptibility Testing of Yeasts. […] Fluconazole (Sigma F8929) was used as internal control on each plate for all strains. All compounds were tested as two technical replicates in two to four independent biological assays, n = 4–8 final data.

[8] = test system: Candida auris CBS12373 KCTC 17810; experiment: Antifungal MIC assay, extended panel; format: cell-based; settings: Candidozyma auris, comparator antifungals, read-out: MIC* Candida auris CBS12373
Procedure: (§2) For the fungal assays, both fungi (yeast) strains were cultured for 3 days on Yeast Extract-Peptone Dextrose (YPD; Becton Dickinson 242720) agar at 30 °C. A yeast suspension of 1 × 10^6 to 5 × 10^6 CFU/mL (as determined by OD530) was prepared from five colonies from the agar plates, subsequently diluted with Yeast Nitrogen Base media (YNB; Becton Dickinson 233520), and added to each well of the compound containing plates (384-well plates, NBS; Corning CLS3640), giving a final cell density of 2.5 × 10^3 CFU/mL and a total volume of 50 μL. Plates were covered and incubated at 35 °C for 36 h without shaking. […] MIC […] Reference Method for Broth Dilution Antifungal Susceptibility Testing of Yeasts. […] Fluconazole (Sigma F8929) was used as internal control on each plate for all strains. All compounds were tested as two technical replicates in two to four independent biological assays, n = 4–8 final data.

[9] = test system: Candida auris CBS10913 JCM 15448; experiment: Antifungal MIC assay, extended panel; format: cell-based; settings: Candidozyma auris, comparator antifungals, read-out: MIC* Candida auris CBS10913
Procedure: as §2

[10] = initial CO-ADD dose-response screening, ≥80% growth inhibition
[11] = single concentration (32 µg/mL) CO-ADD Primary Screening, no inhibition, no dose-response
[12] = ≥80% inhibition, converted with MW of Table S12

Structure (SMILES): O=C([O][Ag])c1ccc(N2N=C(/C=C/c3ccccc3)CC2c2ccccc2)cc1.O=C([O][Ag])c1ccc(N2N=C(/C=C/c3ccccc3)CC2c2ccccc2)cc1 (racemic) [Ag3]
- HEK CC50 [1]: > 32 µg/mL
- MIC Ca [2, 10]: 16 µg/mL
- RBC HC10 (human red blood cells): > 32 µg/mL
- MIC Ec [3, 10]: > 32 µg/mL
- MIC Pa [4, 10]: > 32 µg/mL
- MIC Ab [5, 10]: > 32 µg/mL
- MIC MRSA (Sa) [6, 10]: > 32 µg/mL
- MIC Cn [7, 10]: 16 µg/mL

Structure (SMILES): COc1ccc(/C=C/C2=NN(c3ccc(C(=O)O)cc3)C(c3ccc(OC)c(OC)c3)C2)cc1OC (racemic) [Ligand-Ag1]
- MIC Ca [2, 11]: > 32 µg/mL
- MIC Ec [3, 11]: > 32 µg/mL
- MIC Pa [4, 11]: > 32 µg/mL
- MIC Ab [5, 11]: > 32 µg/mL
- MIC MRSA (Sa) [6, 11]: > 32 µg/mL
- MIC Cn [7, 11]: > 32 µg/mL

Structure (SMILES): O=C(O)c1ccc(N2N=C(/C=C/C=C/c3ccccc3)CC2/C=C/c2ccccc2)cc1 (racemic) [Ligand-Ag2]
- MIC Ca [2, 11]: > 32 µg/mL
- MIC Ec [3, 11]: > 32 µg/mL
- MIC Pa [4, 11]: > 32 µg/mL
- MIC Ab [5, 11]: > 32 µg/mL
- MIC MRSA (Sa) [6, 11]: > 32 µg/mL
- MIC Cn [7, 11]: > 32 µg/mL

Structure (SMILES): O=C(O)c1ccc(N2N=C(/C=C/c3ccccc3)CC2c2ccccc2)cc1 (racemic) [Ligand-Ag3]
- MIC Ca [2, 11]: > 32 µg/mL
- MIC Ec [3, 11]: > 32 µg/mL
- MIC Pa [4, 11]: > 32 µg/mL
- MIC Ab [5, 11]: > 32 µg/mL
- MIC MRSA (Sa) [6, 11]: > 32 µg/mL
- MIC Cn [7, 11]: > 32 µg/mL

Structure (SMILES): O=[N+]([O-])[O-].[Ag+] [AgNO3, reference compound]
- HEK CC50 [1]: > 32 µg/mL
- MIC Ca [2, 10]: 0.25 µg/mL
- RBC HC10 (human red blood cells): 8.9 µg/mL
- MIC Ec [3, 10]: 0.25 µg/mL
- MIC Pa [4, 10]: 0.25 µg/mL
- MIC Ab [5, 10]: 0.25 µg/mL
- MIC MRSA (Sa) [6, 10]: 2 µg/mL
- MIC Cn [7, 10]: 0.25 µg/mL

Structure (SMILES): c1ccc([S][Au][PH](c2ccco2)(c2ccco2)c2ccco2)nc1 [Au-S1]
- MIC Ca [2, 10]: 16 µg/mL
- MIC MRSA (Sa) [6, 10]: 16 µg/mL
- MIC Cn [7, 10]: 16 µg/mL

Structure (SMILES): Cc1ccnc([S][Au][PH](c2ccco2)(c2ccco2)c2ccco2)n1 [Au-S2]
- HEK CC50 [1]: 1.38 µg/mL

Structure (SMILES): FC(F)(F)c1ccnc([S][Au][PH](c2ccco2)(c2ccco2)c2ccco2)n1 [Au-S3]
- MIC MRSA (Sa) [6, 10]: 0.25 µg/mL

Structure (SMILES): FC(F)(F)c1ccnc([S][Au][PH](c2ccccc2)(c2ccccc2)c2ccccc2)n1 [Au-S6]
- MIC MRSA (Sa) [6, 10]: 0.25 µg/mL

Structure (SMILES): Cn1ccn(Cc2ccccc2)[c]1=[Au]1[S][Mo]2([S]1)[S][Au](=[c]1n(C)ccn1Cc1ccccc1)[S]2 (stereo not drawn) [Au-S10]
- MIC Ca [2, 10]: 0.25 µg/mL

Structure (SMILES): Cc1cccc2[n+]1[Au-]([Cl])([Cl])[n+]1c(C)cccc1C(c1ccccc1)=C=C2c1ccccc1.[Cl-] [Au-S11]
- HEK CC50 [1]: > 32 µg/mL
- MIC Ca [2, 10]: 4 µg/mL
- RBC HC10 (human red blood cells): > 32 µg/mL
- MIC Ec [3, 10]: 32 µg/mL
- MIC Pa [4, 10]: > 32 µg/mL
- MIC Ab [5, 10]: > 32 µg/mL
- MIC MRSA (Sa) [6, 10]: 16 µg/mL
- MIC Cn [7, 10]: 16 µg/mL

Structure (SMILES): Cc1cccc2[n+]1[Au-]([Cl])([Cl])[n+]1c(C)cccc1C(C(C)(C)C)=C=C2c1ccccc1.[Cl-] [Au-S12]
- HEK CC50 [1]: > 32 µg/mL
- MIC Ca [2, 10]: 4 µg/mL
- RBC HC10 (human red blood cells): <= 0.25 μg/mL
- MIC Ec [3, 10]: > 32 µg/mL
- MIC Pa [4, 10]: > 32 µg/mL
- MIC Ab [5, 10]: > 32 µg/mL
- MIC MRSA (Sa) [6, 10]: 16 µg/mL
- MIC Cn [7, 10]: <= 0.25 μg/mL

Structure (SMILES): CC1=C(C)C(C)C(c2ccc(-c3ccccc3)cc2)=C1C.Cc1ccccc1NC1=[N][Ir]([Cl])[NH]C(NS(=O)(=O)c2ccc([N+](=O)[O-])cc2)=N1 [Ir2]
- CC50 ([1]; read-out: HEK293 CC50, ranges obtained upon retesting, new batch): 62 to 65 µM

Structure (SMILES): CC(=O)N1CCN(c2ccc(OCC3COC(Cn4ccnc4)(c4ccc(Cl)cc4Cl)O3)cc2)CC1 (stereo not drawn) [Ketoconazole, reference compound]
- MIC ([8]; MIC = ≥80% inhibition): ≤ 0.004 µg/mL
- MIC [8, 12]: ≤ 0.01 µM
- MIC ([9]; MIC = ≥80% inhibition): 4 to 16 ng/mL
- MIC [9, 12]: 0.01 to 0.042 µM
- MIC ([2]; MIC = ≥80% inhibition): 2 to 4 ng/mL
- MIC [2, 12]: 0.005 to 0.01 µM
- MIC [7]: > 64 µg/mL and > 170 µM

Structure (SMILES): C[C@@H](c1ncncc1F)[C@](O)(Cn1cncn1)c1ccc(F)cc1F [Voriconazole, reference compound]
- MIC ([8]; MIC = ≥80% inhibition): 0.156 µg/mL
- MIC [8, 12]: 0.447 µM
- MIC ([9]; MIC = ≥80% inhibition): 4 to 8 ng/mL
- MIC [9, 12]: 0.016 to 0.032 µM
- MIC ([2]; MIC = ≥80% inhibition): 8 ng/mL
- MIC [2, 12]: 0.032 µM
- MIC [7]: ≥ 64 µg/mL and ≥ 260 µM
